# Measurements from US20090191137A1, “Method and Material for Controlling or Eliminating Potentially Harmful, Contaminating or Nuisance Micro-Organisms or Cells” (priority 2007, published 2009).
# Tested on: algae (Chlamydomonas)
# Test: NM7O added to a suspension of algae (algaecide test)
# Assay type: cell-based
# Details: algae 1×10^6 cells/ml in tubes
# Text: The color change can serve as a valuable indicator of activity, as untreated NM7O remains suspended and violet colored.
# This may be due to the requirement of direct contact between the product and the algae.
smiles,measurement,value
O=S(=O)([O-])[O-].[Cu+2] [copper sulfate],effect on algal suspension (appearance of the solution),the solution turned blue
same,microscopic evaluation of the sediment (appearance of treated cells),appeared intact with full cellular contents
